From US20250213547A1, “METHODS OF TREATING NEUROLOGICAL DISEASES” (priority 2022, published 2025)

Columns and labels:
[1] = target: T1, CH24H (Homo sapiens, UniProt Q9Y6A2); test: PK/PD (PK/OE/24HC) turnover modeling; settings: turnover model estimate
T1 construct: from tissue; host or cells: brain of living human trial subjects (in vivo)
Text: Similar to the PK model, the PK/PD model was developed as a population mixed-effects model and incorporated the individual PK parameters from the final PK population model. A turnover model was used to characterize changes in plasma 24HC overtime. Plasma 24HC was considered to be at steady-state baseline (BL) before the start of treatment. […] PK/PD covariates were screened in a procedure similar to the PK covariates. In the final PK/PD model, two covariates, A1-AGLP and body weight affected baseline 24HC.
The PK/PD analysis dataset consisted of 2165 24HC observations from 3 phase I trials. Four subjects from the ELEKTRA study with large IC50 estimates were excluded from the dataset. Additionally, 42 individuals with large conditional weighted residuals were excluded from the dataset. The final dataset contained 2107 24HC observations from 248 subjects. Table 26 summarizes the modeling dataset with reference to example numbers, respective clinical trial ID, subject numbers, regimen, and number of observations and doses. Tables 27 and 28 summarize the categorical covariates used in PK/OE/24HC analysis from the entire dataset and the ELEKTRA study subset, respectively.
Tables 29 and 30 summarize the mean continuous variables used in the PK/OE/24HC covariate analysis from the entire PK/OE/24HC population studied and the ELEKTRA subset, respectively. In addition to the shared variables, the PK/PD dataset contained the individual final estimates of the population PK model parameters (IND_ALAG1, IND_KA, IND_CL, IND_V2, IND_Q, IND_V3, and IND_F1). Subjects without individual PK parameter estimates (e.g. subjects from the placebo arms) were assigned to the respective geometric mean of the estimated individual parameter values.
A turnover model was used to describe changes in 24HC concentration over time. […] The following formula estimates change in 24HC: […]
The indirect exposure effect (EFF) was estimated by an Imax model:
The effect-site concentration was implemented as a delayed equilibrium with the plasma/brain transit rate parameter (KPLBR):
The scaling parameter KPLBR was previously estimated in a competitive enzyme occupancy model derived from PET brain imaging data (NCT02497235, Table 19). Parameters derived from this base model were fixed at their previous final PK population estimates derived from example 12. However, no random effects could be estimated without enzyme occupancy data. FIG. 26 depicts the basic model structure in relation to observed and unobserved data. There was a strong growth-related increase in baseline 24HC levels, which was only observed in young subjects.
The following variables were screened by forward inclusion, backward exclusion F-tests: • Growth/maturity: Weight, BMI, and age • Protein binding: Albumin (ALB), A1-AGLP • Liver function: AST, ALT, GGT, and ALP • Kidney function: Creatinine clearance (CRCL), eGFR • Categorical variables: Asian, sex. Ethnicity, and disease type

[2] = Relative stability of crystalline polymorphs; assay type: physicochemical; settings: Form II compared with Form I

T1 sequence (Q9Y6A2 whole entry): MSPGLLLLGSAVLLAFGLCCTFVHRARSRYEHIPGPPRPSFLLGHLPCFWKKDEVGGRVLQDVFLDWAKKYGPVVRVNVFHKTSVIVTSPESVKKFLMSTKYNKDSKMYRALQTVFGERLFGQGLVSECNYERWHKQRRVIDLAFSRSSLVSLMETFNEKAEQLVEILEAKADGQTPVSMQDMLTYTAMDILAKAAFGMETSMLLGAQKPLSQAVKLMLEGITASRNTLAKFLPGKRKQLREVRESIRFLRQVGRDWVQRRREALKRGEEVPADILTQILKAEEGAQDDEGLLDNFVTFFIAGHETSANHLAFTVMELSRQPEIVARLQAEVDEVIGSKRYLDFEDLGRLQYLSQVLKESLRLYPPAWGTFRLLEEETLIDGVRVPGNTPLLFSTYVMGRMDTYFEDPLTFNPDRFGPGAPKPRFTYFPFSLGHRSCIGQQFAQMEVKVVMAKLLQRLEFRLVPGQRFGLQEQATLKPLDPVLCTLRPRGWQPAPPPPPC

| SMILES | 24HC elimination rate (KOUT) [1] [ng/mL/h] | 24HC synthesis rate (KIN) [1] [h⁻¹] | polymorph stability [2] |
| --- | --- | --- | --- |
| CC(C)C(O)CC[C@@H](C)[C@H]1CC[C@H]2[C@@H]3CC=C4C[C@@H](O)CC[C@]4(C)[C@H]3CC[C@]12C (stereo partly drawn) [24HC, 24-hydroxycholesterol] | 0.02 | 1.09 | – |
| O=C(c1cccnc1-c1ccncc1)N1CCC(O)(Cc2ccccc2)CC1 [Form II, (4-benzyl-4-hydroxypiperidin-1-yl) (2,4′-bipyridin-3-yl) methanone] | – | – | more stable than Form I |
